What was measured:
[1] = system: MC65 cells; experiment: APP CTF-induced neurotoxicity (cell viability) in MC65 cells; details: for attenuation of APP CTF-induced neurotoxicity (active/inactive): in vitro challenge test
[2] = system: NGF-differentiated PC12 cells; details: 10 μM; cited from earlier work
[3] = system: Abeta plaque; experiment: Abeta plaque in brains of Alzheimer's transgenic mice versus control vehicle; assay type: in vivo; details: 2% phytic acid, all three cases (FIGS. 4-6)
Procedure: (§1) Applicant also submits Table 1 and FIGS. 4-6 showing data from in vivo testing of the subject matter compounds in Alzheimer's transgenic mice. These Alzheimer's transgenic mice are genetically altered to produce Abeta plaque, and were treated for about six months with compounds of the Applicant's invention. Namely, the drinking water was infused with phytic acid so that the final concentration of phytic acid in the drinking water was 2%.
After six months, the animals were put down for autopsy and necropsy so that Abeta plaque in the brains was assayed, separated and weighed.
FIGS. 4-6 are graphs comparing the tested compound in vivo with the control vehicle.

[4] = humans, ingestion of large doses; cited from earlier work
[5] = system: Alzheimer's transgenic mice; experiment: Toxicity and weight loss in treated Alzheimer's transgenic mice; assay type: in vivo; details: 2% phytic acid in drinking water, about six months
Procedure: as §1

[6] = system: MC65 cells; experiment: Oxidative stress associated with APP CTF expression, hydrogen peroxide in cell media; assay type: cell-based, human; details: 100 μM
Procedure: In vitro studies were conducted in MC65 cells, an established human neuroblastoma line that conditionally expresses the first 17 amino-terminal residues and the 99 carboxy-terminal residues of amyloid precursor protein (APP CTF). Detectable APP CTF expression occurs within 3-4 h of tetracycline withdrawal, appearance of aggregates and initial losses of culture viability occurs at about 2 days and near complete death occurs by approximately 3 days.

[7] = system: amyloid-B peptide (AB); details: transgenic Alzheimer Disease mouse studies; cited from earlier work
[8] = system: transgenic mouse model of Alzheimer's Disease; details: cited from earlier work

Compound	attenuation of APP CTF-induced neurotoxicity (active/inactive) [1]	rescue from Ab-induced neurotoxicity [2]	Abeta plaque compared to the control vehicle [3]	physiological discomfort or symptoms of toxicological action [4]	EC50 ([1]; Homo sapiens, MC65, read-out: EC50 concentration, protection from APP CTF-induced death)	protection from cytotoxicity ([1]; MC65 cells, concentrations of 200 μM and higher)	toxicity in the treated group [5]	weight loss in the treated group [5]	oxidative stress associated with APP CTF expression (hydrogen peroxide in the cell media) [6]	aggregation of amyloid-B peptide (AB) [7]	prevention and reversal of Alzheimer's Disease [8]
O[C@H]1[C@H](O)[C@@H](O)[C@H](O)[C@@H](O)[C@H]1O [myo inositol, reference compound]	inactive	rescues									
O=P(O)(O)O[C@H]1[C@H](OP(=O)(O)O)[C@@H](OP(=O)(O)O)[C@H](OP(=O)(O)O)[C@@H](OP(=O)(O)O)[C@H]1OP(=O)(O)O [phytic acid, myo-inositol-hexakis (dihydrogen phosphate)]	active		reduction in Abeta plaque	elicits no physiological discomfort or symptoms of any toxicological action	~100 µM	near complete protection	no toxicity	nor any significant weight loss	suppressed oxidative stress		
O[C@H]1[C@H](O)[C@@H](O)[C@H](O)[C@@H](O)[C@@H]1O [scyllo inositol]	inactive	rescues								inhibits and blocks the aggregation	prevent and reverse Alzheimer's Disease

Source: patent US11510932B2, “Prophylactic and therapeutic treatment of alzheimer's disease using phytic acid and phytate to reduce amyloid beta plaque and tau protein” (priority 2009, dated 2022)
